Measured values from the Kinase Knowledgebase extract (Sharma et al. 2016).

target: EGFR (UniProt P00533); conditions: her-14
Sequence (P00533 whole entry, looked up): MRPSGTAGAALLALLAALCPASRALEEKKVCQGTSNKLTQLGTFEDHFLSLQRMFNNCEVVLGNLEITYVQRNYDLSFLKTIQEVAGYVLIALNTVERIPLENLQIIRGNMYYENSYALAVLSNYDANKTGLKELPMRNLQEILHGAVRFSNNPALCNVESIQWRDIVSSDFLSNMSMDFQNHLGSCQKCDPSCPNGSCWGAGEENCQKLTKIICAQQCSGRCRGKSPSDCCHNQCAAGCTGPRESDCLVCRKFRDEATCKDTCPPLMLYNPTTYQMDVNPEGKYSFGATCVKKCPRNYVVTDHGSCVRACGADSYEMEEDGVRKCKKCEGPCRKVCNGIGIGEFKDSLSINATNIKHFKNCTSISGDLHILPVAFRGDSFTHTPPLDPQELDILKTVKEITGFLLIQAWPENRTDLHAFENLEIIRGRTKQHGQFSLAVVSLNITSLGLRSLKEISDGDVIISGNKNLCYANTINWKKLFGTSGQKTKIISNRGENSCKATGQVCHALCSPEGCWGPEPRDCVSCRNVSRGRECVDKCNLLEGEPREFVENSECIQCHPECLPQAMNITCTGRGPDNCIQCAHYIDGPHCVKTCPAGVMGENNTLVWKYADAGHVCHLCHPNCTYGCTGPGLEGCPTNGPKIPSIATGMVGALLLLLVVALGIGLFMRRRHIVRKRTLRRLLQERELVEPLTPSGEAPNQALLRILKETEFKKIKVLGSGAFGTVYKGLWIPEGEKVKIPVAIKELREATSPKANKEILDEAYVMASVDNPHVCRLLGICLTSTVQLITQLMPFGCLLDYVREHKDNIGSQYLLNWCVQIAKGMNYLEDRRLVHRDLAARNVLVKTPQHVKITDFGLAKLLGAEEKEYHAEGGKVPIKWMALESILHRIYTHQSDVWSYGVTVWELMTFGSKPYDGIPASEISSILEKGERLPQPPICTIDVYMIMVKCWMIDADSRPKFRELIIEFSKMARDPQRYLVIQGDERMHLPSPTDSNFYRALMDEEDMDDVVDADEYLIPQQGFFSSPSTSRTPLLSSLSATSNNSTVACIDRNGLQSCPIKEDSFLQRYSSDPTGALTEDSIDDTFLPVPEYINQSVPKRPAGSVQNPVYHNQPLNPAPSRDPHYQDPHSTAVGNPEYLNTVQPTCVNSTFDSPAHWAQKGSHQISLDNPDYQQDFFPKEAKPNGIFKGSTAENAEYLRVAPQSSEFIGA

N#C/C(=C\c1ccc(O)c(O)c1)C(=O)NCCN1CCN(C(=O)/C(C#N)=C/c2ccc(O)c(O)c2)CC1 and N#C/C(=C\c1ccc(O)c(O)c1)C(=O)NCN1CCN(C(=O)/C(C#N)=C/c2ccc(O)c(O)c2)CC1 are within 1.5-fold of each other in IC50: 6.2 µM for the first, 5.8 µM for the second.

First: N#C/C(=C\c1ccc(O)c(O)c1)C(=O)NCc1cccc(CNC(=O)/C(C#N)=C/c2ccc(O)c(O)c2)c1
Second: N#C/C(=C\c1ccc(O)c(O)c1)C(=O)NCCNC(=O)/C(C#N)=C/c1ccc(O)c(O)c1
The IC50 of the first is 1.7-fold lower: 6 µM for the first, 10 µM for the second. The first is the more potent here.

First: N#C/C(=C\c1ccc(O)c(O)c1)C(=O)NCCCCCNC(=O)/C(C#N)=C/c1ccc(O)c(O)c1
Second: N#C/C(=C\c1ccc(O)c(O)c1)C(=O)NCCCCCCNC(=O)/C(C#N)=C/c1ccc(O)c(O)c1
The IC50 of the first is 1.8-fold higher: 9 µM for the first, 5 µM for the second. The second is the more potent here.

Going from N#C/C(=C\c1ccc(O)c(O)c1)C(=O)N1CCN(C(=O)/C(C#N)=C/c2ccc(O)c(O)c2)CC1 to N#C/C(=C\c1ccc(O)c(O)c1)C(=O)NC1CCCCC1NC(=O)/C(C#N)=C/c1ccc(O)c(O)c1 (centres undefined), the IC50 falls from 10 µM to 4 µM (2.5-fold).

Compared with COc1cc(/C=C(\C#N)C(=O)NCCCCNC(=O)/C(C#N)=C/c2cc(Br)c(O)c(OC)c2)cc(Br)c1O, COc1cc(/C=C(\C#N)C(=O)NCCCCNC(=O)/C(C#N)=C/c2cc(OC)c(O)c([N+](=O)[O-])c2)cc([N+](=O)[O-])c1O is higher in IC50: 3 µM for the first, > 80 µM for the second.

First: N#C/C(=C\c1ccc(O)c(O)c1)S(=O)(=O)/C(C#N)=C/c1ccc(O)c(O)c1
Second: N#C/C(=C\c1ccc(O)c(O)c1)C(=O)NCCCCNC(=O)/C(C#N)=C/c1ccc(O)c(O)c1
The IC50 of the first is 2.5-fold lower: 2 µM for the first, 5 µM for the second.

Compared with N#C/C(=C\c1ccc(O)c(O)c1)C(=O)NCC1CCCC(CNC(=O)/C(C#N)=C/c2ccc(O)c(O)c2)C1 (centres undefined), N#C/C(=C\c1ccc(O)c(O)c1)C(=O)NCCCN1CCN(CCCNC(=O)/C(C#N)=C/c2ccc(O)c(O)c2)CC1 is 1.8-fold lower in IC50: 12.5 µM for the first, 7 µM for the second.

First: N#C/C(=C\c1ccc(O)c(O)c1)C(=O)NCCCCCCCCCCNC(=O)/C(C#N)=C/c1ccc(O)c(O)c1
Second: N#C/C(=C\c1cc(O)c(O)c(O)c1)C(=O)NCCCCNC(=O)/C(C#N)=C/c1cc(O)c(O)c(O)c1
The IC50 of the first is 5-fold higher: 25 µM for the first, 5 µM for the second.

Going from N#C/C(=C\c1cc(O)c(O)c([N+](=O)[O-])c1)C(=O)NCCCNC(=O)/C(C#N)=C/c1cc(O)c(O)c([N+](=O)[O-])c1 to N#C/C(=C\c1cc(O)c(O)c(Br)c1)C(=O)NCCCNC(=O)/C(C#N)=C/c1cc(O)c(O)c(Br)c1, the IC50 falls from 35 µM to 7.3 µM (4.8-fold).

N#C/C(=C\c1ccc(O)c(O)c1)C(=O)NC1CCC(CC2CCC(NC(=O)/C(C#N)=C/c3ccc(O)c(O)c3)CC2)CC1 (centres undefined) was tested, and the IC50 was 20.3 µM.
